Assay [1] concerns the target T1, Interleukin-8 (Homo sapiens, UniProt P10145).
T1 sequence (P10145 whole entry): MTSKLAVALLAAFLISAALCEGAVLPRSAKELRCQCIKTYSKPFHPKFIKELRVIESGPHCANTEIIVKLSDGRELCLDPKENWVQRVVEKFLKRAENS
Kind of assay: SAR analysis of Tumor necrosis factor alpha (TNF-alpha) induced IL-8 secretion in MCF-7/NOD1 cells - Set 2. [Related pubchem assays (depositor defined):AID1575, AID2250, AID2260]. Type of assay: functional, cell-based.

In assay [2] the test system is HEK293. Kind of assay: SAR analysis of compounds that are cytotoxic to HEK293 - Set 3. [Related pubchem assays (depositor defined):AID1575, AID1578, AID1848, AID1849, AID2001, AID2333, AID2334, AID2335, AID2337, AID2469]. Type of assay: functional, cell-based. Particulars: Homo sapiens.
The target of assay [3] is T1, Interleukin-8. Kind of assay: SAR analysis of GM-Tri-DAP induced IL-8 secretion in MCF-7/NOD1 cells - Set 2. [Related pubchem assays (depositor defined):AID1575, AID1578, AID2333]. Type of assay: functional, cell-based.
The target in assay [4] is T2, Nucleotide-binding oligomerization domain-containing protein 1 (Homo sapiens, UniProt Q9Y239).
T2 sequence (Q9Y239 whole entry): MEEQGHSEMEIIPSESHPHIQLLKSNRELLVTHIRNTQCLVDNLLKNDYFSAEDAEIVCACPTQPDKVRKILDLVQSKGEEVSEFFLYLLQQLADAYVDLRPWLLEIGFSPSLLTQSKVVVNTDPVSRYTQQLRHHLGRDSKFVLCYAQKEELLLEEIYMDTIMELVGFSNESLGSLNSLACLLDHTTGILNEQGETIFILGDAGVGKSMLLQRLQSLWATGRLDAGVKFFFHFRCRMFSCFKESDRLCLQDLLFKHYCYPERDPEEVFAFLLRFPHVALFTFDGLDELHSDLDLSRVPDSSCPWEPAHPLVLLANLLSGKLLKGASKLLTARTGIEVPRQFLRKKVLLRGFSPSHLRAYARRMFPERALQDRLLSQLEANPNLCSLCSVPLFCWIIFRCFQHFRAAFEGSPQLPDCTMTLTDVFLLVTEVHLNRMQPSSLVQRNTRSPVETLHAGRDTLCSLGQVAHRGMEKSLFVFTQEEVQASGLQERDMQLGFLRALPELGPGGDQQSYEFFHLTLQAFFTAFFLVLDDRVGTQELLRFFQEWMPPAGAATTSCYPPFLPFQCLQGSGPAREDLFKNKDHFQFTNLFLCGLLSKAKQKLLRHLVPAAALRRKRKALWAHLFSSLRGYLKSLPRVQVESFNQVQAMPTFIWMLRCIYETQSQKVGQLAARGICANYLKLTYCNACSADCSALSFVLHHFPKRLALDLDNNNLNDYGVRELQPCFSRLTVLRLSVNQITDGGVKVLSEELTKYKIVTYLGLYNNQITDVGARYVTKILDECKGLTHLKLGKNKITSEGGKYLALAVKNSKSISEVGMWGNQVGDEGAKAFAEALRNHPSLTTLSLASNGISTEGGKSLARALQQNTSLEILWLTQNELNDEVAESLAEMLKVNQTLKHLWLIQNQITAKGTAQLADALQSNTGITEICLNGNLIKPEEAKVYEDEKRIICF
Kind of assay: SAR analysis of compounds that inhibit NOD1 - Set 2. [Related pubchem assays (depositor defined):AID1566, AID1575, AID1578, AID1849, AID1852, AID2333, AID2335, AID2798]. Type of assay: functional.

Assay [5] concerns the target T3, Nucleotide-binding oligomerization domain-containing protein 2 (Homo sapiens, UniProt Q9HC29). Put plainly: NOD2 inhibitors, SAR follow-up, set 2 (AID 2475). Type of assay: functional.
The subject of assay [6] is HEK293. Put plainly: SAR analysis of compounds that are cytotoxic to HEK293 - Set 2. [Related pubchem assays (depositor defined):AID1575, AID1578, AID1849, AID2001, AID2333, AID2334, AID2335, AID2337, AID2800]. Type of assay: functional, cell-based. Conditions: Homo sapiens.
A further assay concerns the target Tumor necrosis factor (Homo sapiens, UniProt P01375). Kind of assay: TNFa-triggered NF-kB activation inhibitors, SAR follow-up, cell-based, set 3 (AID 2801). Type of assay: functional.
Assay [7] has as its target T3, Nucleotide-binding oligomerization domain-containing protein 2. Put plainly: NOD2 signaling inhibitors, analog potency, SAR follow-up, cell-based, set 3 (AID 2799). Type of assay: functional.
Assay [8] concerns the target T2, Nucleotide-binding oligomerization domain-containing protein 1. Kind of assay: SAR analysis of NF-kappaB dependent luciferase using DAP as an inducer - Set 2. [Related pubchem assays (depositor defined):AID1566, AID1575, AID1578, AID1579, AID1849, AID1852, AID2264]. Type of assay: functional.
Assay [9] shares this target. Kind of assay: SAR analysis of compounds that inhibit NOD1 - Set 3. [Related pubchem assays (depositor defined):AID1566, AID1575, AID1578, AID1849, AID1852, AID2333, AID2335, AID2466]. Type of assay: functional.

Activity calls are given as the source filed them.

T3 sequence (Q9HC29 whole entry, the tested form may be a part): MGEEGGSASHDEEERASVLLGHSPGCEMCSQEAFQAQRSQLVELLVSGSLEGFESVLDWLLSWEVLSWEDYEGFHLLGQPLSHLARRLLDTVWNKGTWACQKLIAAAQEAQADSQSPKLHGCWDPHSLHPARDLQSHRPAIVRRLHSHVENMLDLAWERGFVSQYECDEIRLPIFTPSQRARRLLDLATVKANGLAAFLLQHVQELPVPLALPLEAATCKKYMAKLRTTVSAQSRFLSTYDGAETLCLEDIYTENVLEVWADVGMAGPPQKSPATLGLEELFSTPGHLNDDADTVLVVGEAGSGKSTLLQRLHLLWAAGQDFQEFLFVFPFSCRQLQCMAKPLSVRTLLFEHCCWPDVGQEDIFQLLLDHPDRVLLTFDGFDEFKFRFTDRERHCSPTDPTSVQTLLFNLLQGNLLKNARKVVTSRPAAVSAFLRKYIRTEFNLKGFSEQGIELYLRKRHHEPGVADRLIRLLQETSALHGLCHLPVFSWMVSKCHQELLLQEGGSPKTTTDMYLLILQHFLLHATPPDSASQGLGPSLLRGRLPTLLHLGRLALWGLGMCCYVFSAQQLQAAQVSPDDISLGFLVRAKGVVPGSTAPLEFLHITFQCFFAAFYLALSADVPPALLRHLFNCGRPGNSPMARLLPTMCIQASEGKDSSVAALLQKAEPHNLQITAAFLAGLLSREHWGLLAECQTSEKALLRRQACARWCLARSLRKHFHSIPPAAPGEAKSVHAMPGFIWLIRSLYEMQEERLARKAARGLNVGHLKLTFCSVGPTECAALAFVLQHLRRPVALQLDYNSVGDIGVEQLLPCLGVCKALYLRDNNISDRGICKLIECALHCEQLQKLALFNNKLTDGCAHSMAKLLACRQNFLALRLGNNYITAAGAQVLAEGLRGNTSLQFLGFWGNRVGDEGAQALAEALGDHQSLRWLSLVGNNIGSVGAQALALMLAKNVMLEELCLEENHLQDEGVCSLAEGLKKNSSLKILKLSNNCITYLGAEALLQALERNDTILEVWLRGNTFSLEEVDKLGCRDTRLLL
Sequence of Tumor necrosis factor (P01375 whole entry, the tested form may be a part): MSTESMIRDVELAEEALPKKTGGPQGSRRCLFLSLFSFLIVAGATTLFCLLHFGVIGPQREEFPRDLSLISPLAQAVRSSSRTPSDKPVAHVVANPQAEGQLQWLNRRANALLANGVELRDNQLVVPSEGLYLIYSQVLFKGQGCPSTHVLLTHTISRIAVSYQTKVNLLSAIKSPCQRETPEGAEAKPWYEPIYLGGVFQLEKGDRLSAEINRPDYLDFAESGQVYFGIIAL

Turning to `CC(C)n1c(SCCCc2ccccc2)nc2c1c(=O)[nH]c(=O)n2C`, the IC50 (in general, the concentration needed to halve the response being measured) on Interleukin-8 [1] was > 25 µM (inactive); in the assay on HEK293 [2], > 20 µM (inactive); on Interleukin-8 [3], > 25 µM (inactive); in assay [4], 12.3 µM (active); in [5] it was 17.6 µM (active); in the assay on HEK293 [6] it was > 20 µM (inactive). Further, the IC50 at Tumor necrosis factor is > 20 µM (inactive); in assay [7], > 20 µM (inactive); in assay [8], > 25 µM (inactive); in assay [9], > 20 µM (inactive).
